# Results: US9497963B2, “Methods and compositions for control of gypsy moth, Lymantria dispar” (Simon Fraser University, priority 2008, dated 2016)
# Legend:
# moths = experiment: Simple behavioural tests (films of moths exposed to puffs); type: in vivo, Lymantria dispar; conditions: (+)-disparlure:compound 1:1000 vs pheromone alone
# male gypsy moth antenna = experiment: EAG dose response and ratio tests of (+)-disparlure:3c{1,3} (Example 16); design: species or system Lymantria dispar; conditions: (+)-disparlure:compound ratios about 1:300 to about 1:2000 or greater
# Experimental: Dose response and ratio tests were done at each of the following (+)-disparlure concentrations: 1 ng, 10 ng, 50 ng, 100 ng, 500 ng and 1000 ng, the following ratios of (+)-disparlure:3c{1,3} were tested: 1:100, 1:300, 1:500, 1:700, 1:1000, 1:1500 and 1:2000 (FIG. 19).
# [1] = tested on: male gypsy moth antennae response to pheromone (+)-1 with plant odors; experiment: Effect on mixed pheromone/plant odorant stimulus, EAG (Example 8, second objective); design: species or system Lymantria dispar
# Experimental: A second objective for this experiment was to determine whether the oak volatiles, methyl eugenol and 1-hexanol, can enhance the antennal response to (+)-1 and whether the mixed pheromone/plant odorant stimulus can be inhibited by compound 3c{2,3} or DEET. The puff order was: i) air, ii) pure (+)-1 (100 ng), iii) (+)-1 (100 ng) and plant odorant (1 μg for methyl eugenol and 100 μg for 1-hexanol), iv) (+)-1 and plant odorant as in iii+antagonist (100 μg), v) same as in iii. Depolarizations were corrected for the air response as in Eq. 1 and the short-term effects were calculated for puff iii relative to puff ii, and for puff iv relative to puff ii. Long-term effects were calculated for puff v relative to puff iii (for LTI of the mixed pheromone/plant odorant plume) and for puff v relative to puff ii (to determine whether long-term effects of the plant odorant and of the antagonist cancel).
# [2] = plant synergist 1-hexanol 100 μg
# [3] = plant synergist methyl eugenol 1 μg
Compound,behaviour of moths exposed to puffs (moths),EAG depolarization shape (in words) (male gypsy moth antenna),short-term effect with plant synergist + antagonist ([1]; (+)-1 100 ng + 1-hexanol 100 μg + antagonist 100 μg),short-term effect with plant synergist + antagonist ([1]; (+)-1 100 ng + methyl eugenol 1 μg + antagonist 100 μg),"long-term effect on (+)-1 response [1, 2]","long-term effect on the mixed (+)-1/plant odor plumes [1, 2]","long-term effect on (+)-1 response [1, 3]","long-term effect on the mixed (+)-1/plant odor plumes [1, 3]"
"CCCOc1ccc(OC)cc1 [3c{1,3}, 1-methoxy-4-propoxy-benzene]",excited and violently flap their wings much longer,increasingly broad depolarizations,–,–,–,–,–,–
"CCCOc1ccc(OCC)cc1 [3c{2,3}, 1-ethoxy-4-propoxy benzene]",–,–,−99 ± 60 (5),−125 ± 95 (4),20 ± 18 (5),5 ± 24 (5),12 ± 33 (4),11 ± 47 (4)
